Test results published in patent US5045566A, “Novel imidate insecticides” (ICI Americas Inc., priority 1989, dated 1991).

What was measured:
Assay type in all cases: in vivo
[1] = test system: Housefly [Musca domestica]; assay: Housefly contact mortality in dishes (HF), 48 hours; conditions: μg of test compound per 25 female flies
In short: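 Acetone solutions (with 0.01% peanut oil) dried onto dish bottoms, then 25 female flies, 1-2 days old, caged over the residue with sugar water. Mortality scored at 48 hours; LC50 from dosage-mortality curves, in μg per 25 female flies, top level 100 μg.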

[2] = test system: Maize weevil [Sitophilus zeamais (Motschulsky)]; assay: Maize weevil on dipped corn seeds (MW), 48 hours; conditions: percent in solution, adult weevils
Description: The compounds in Tables 1 and 2 above were tested for insecticidal activity using the following testing procedures. LC50 values, based on the results of these tests and calculated according to dosage-mortality curves, are expressed in Table 3.
Maize weevil [Sitophilus zeamais (Motschulsky)]:
Test compounds were diluted in a 50:50 acetone:water solution. Four corn seeds [Zea mays (L.)] which had been immersed in test solutions for 2-3 seconds and allowed to dry were placed in containers together with 10 adult weevils. The containers were covered and kept at a temperature of about 25° C. Mortality was recorded after 48 hours. Test concentrations ranged from 0.01% down to that at which 50% mortality occurred. The LC50 values are expressed below in Table 3 under the heading "MW" in terms of percent of the test compound in solution.

[3] = test system: Cabbage Looper [Trichoplusia ni (Hubner)]; assay: Cabbage looper leaf dip (CL), 3-5 days; conditions: percent in solution, second-instar larvae
In short: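 Squash cotyledons dipped 2-3 s in compound in 50-50 acetone-water, dried, then infested with 5 second-instar larvae and held at high humidity. Mortality scored after 3-5 days at concentrations from 0.1% downward. LC50 from dosage-mortality curves, expressed as percent compound in solution.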

[4] = test system: Tobacco Budworm [Heliothis virescens (Fabricius)] eggs; assay: Tobacco budworm eggs (TBW-E); conditions: percent in solution; 2-day old eggs
In short: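 Paper-towel patches of 2-day-old eggs dipped in acetone solutions of compound (0.1% downward), held on larval rearing medium at 78° F. Mortality scored once all control eggs had hatched and larvae were feeding; LC50 from dosage-mortality curves, expressed as percent compound in solution.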

[5] = test system: Black Bean Aphid [Aphis fabae (Scop.)]; assay: Black bean aphid spray test on nasturtium (BBA), 48 hours; conditions: percent of test compound in sprayed solution
In short: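 LC50, given as percent test compound in the sprayed liquid, was calculated from dosage-mortality curves using concentrations from 0.05% downward. Sprays in 50:50 acetone-water went to runoff on ~5 cm nasturtiums carrying 25-50 aphids of mixed ages, one day after infestation. Deaths were counted 48 h later under greenhouse conditions.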

SMILES | LC50 HF [1] | LC50 MW [2] | LC50 CL [3] | LC50 TBW E (eggs) [4] | LC50 BBA [5]
CC(C)C(=Nc1ccc(F)c(Br)c1)OCc1ccc(F)c(Oc2ccccc2)c1 [Compound 299] | 8 µg | > 0.01% | 0.0005% | 0.017% | –
CC(C)C(=Nc1ccc([N+](=O)[O-])c(C(F)(F)F)c1)OCc1cccc(Oc2ccccc2)c1 [Compound 307] | > 100 µg | > 0.01% | 0.002% | 0.08% | –
CC(C)C(=Nc1ccc(OC(F)(F)F)cc1)OCc1cccc(Oc2ccccc2)n1 [Compound 550] | < 100 µg | > 0.01% | 0.00034% | > 0.1% | 0.002%
Cc1cccc(N=C(OCc2cccc(Oc3ccc(F)cc3)c2)C(C)C)c1 [Compound 405] | < 100 µg | > 0.01% | > 0.1% | > 0.1% | 0.0025%
Cc1cc(N=C(OCc2ccc(F)c(Oc3ccc(Cl)cc3)c2)C(C)C)ccc1F [Compound 399] | < 100 µg | > 0.01% | 0.0012% | 0.025% | 0.0003%
CC(C)C(=Nc1ccc(Br)c(F)c1)OCc1cccc(Oc2ccc(Cl)cc2)n1 [Compound 551] | < 100 µg | > 0.01% | 0.00075% | 0.035% | 0.0006%
Fc1ccc(COC(=Nc2ccc(C(F)(F)F)cc2)C2CC2)cc1Oc1ccc(Cl)cc1 [Compound 444] | > 100 µg | > 0.01% | 0.00015% | – | 0.0006%
Fc1ccc(Oc2cccc(COC(=Nc3ccc(F)c(Cl)c3)C3CC3)c2)cc1 [Compound 116] | 15 µg | > 0.01% | 0.00025% | – | –
CC(C)C(=Nc1cccc(OC(F)(F)F)c1)OCc1ccc(F)c(Oc2ccc(Cl)cc2)c1 [Compound 436] | < 100 µg | > 0.01% | – | < 0.1% | 0.0006%
CC(C)C(=Nc1c(F)c(F)cc(F)c1F)OCc1cccc(Oc2ccc(F)cc2)c1 [Compound 304] | > 100 µg | > 0.01% | 0.0024% | > 0.1% | –
CC(Br)C(=Nc1ccc2c(c1)OCO2)OCc1cccc(Oc2ccccc2)c1 (stereo not shown) [Compound 306] | > 100 µg | > 0.01% | 0.005% | 0.1% | –
CC(C)C(=Nc1ccc(F)cc1F)OCc1coc(Cc2ccccc2)c1 [Compound 486] | 15 µg | > 0.01% | > 0.1% | > 0.1% | –
Fc1ccc(Oc2cccc(COC(=Nc3cccc(C(F)(F)F)c3)C3CC3)c2)cc1 [Compound 294] | > 100 µg | > 0.01% | 0.017% | > 0.1% | –
CC(C)C(=Nc1ccc(Br)cc1)OCc1coc(Cc2ccccc2)c1 [Compound 478] | 15 µg | > 0.01% | 0.0037% | > 0.1% | –
Fc1ccc(COC(=Nc2ccc(C(F)(F)F)cc2)C2CC2)cc1Oc1ccccc1 [Compound 443] | < 100 µg | < 0.01% | 0.00015% | – | 0.0003%
CC(C)C(=Nc1ccc(F)c(I)c1)OCc1cccc(Oc2ccc(F)cc2)c1 [Compound 449] | 13 µg | 0.0075% | 0.0001% | 0.025% | –
CC(C)C(=Nc1ccc(C(C)(C)C)cc1)OCc1ccc(F)c(Oc2ccc(Cl)cc2)c1 [Compound 301] | > 100 µg | > 0.01% | 0.008% | > 0.1% | –
CC(C)C(=Nc1ccc2c(c1)OCO2)OCc1coc(Cc2ccccc2)c1 [Compound 483] | 6 µg | > 0.01% | 0.001% | 0.05% | –
CC(C)C(=Nc1cc(F)c(Cl)cc1Cl)OCc1ccc(F)c(Oc2ccc(F)cc2)c1 [Compound 292] | 41 µg | > 0.01% | 0.00075% | 0.05% | –

SMILES | LC50 HF [1] | LC50 MW [2] | LC50 CL [3] | LC50 TBW E (eggs) [4] | LC50 BBA [5]
CC(C)C(=Nc1cccc(C(F)(F)F)c1)OCc1cccc(Oc2ccc(Cl)cc2)n1 [Compound 477] | 20 µg | 0.0076% | 0.0003% | > 0.1% | –
CC(C)C(=Nc1cccc([N+](=O)[O-])c1)OCc1cccc(Oc2ccccc2)c1 [Compound 302] | 15 µg | > 0.01% | 0.003% | > 0.1% | –
CC(C)C(=Nc1cccc(C(F)(F)F)c1)OCc1ccnc(Oc2ccc(F)cc2)c1 [Compound 508] | > 100 µg | > 0.01% | 0.013% | > 0.1% | –
Cc1c(COC(=Nc2ccc(F)cc2)C(C)C)cccc1-c1ccccc1 [Compound 458] | 100 µg | – | 0.007% | > 0.05% | > 0.05%
CC(C)C(=Nc1ccc2c(c1)OCO2)OCc1cccc(Oc2ccc(C(F)(F)F)cc2)c1 [Compound 246] | 60 µg | – | 0.004% | > 0.1% | > 0.05%
Cc1ccc(Cl)c(N=C(OCc2cccc(Oc3ccccc3)c2)C(C)C)c1 [Compound 93] | 64 µg | – | 0.005% | > 0.1% | 0.003%
CCC(C)C(=Nc1ccc(F)c(Cl)c1)OCc1ccc(F)c(Oc2ccccc2)c1 (stereo not shown) [Compound 261] | 24 µg | – | 0.001% | 0.05% | 0.002%
CC(C)C(=Nc1cccc(C(F)(F)F)c1)OCc1coc(Cc2ccccc2)c1 [Compound 482] | 36 µg | > 0.01% | 0.01% | > 0.1% | –
Fc1c(F)c(F)c(COC(=Nc2cccc(Cl)c2Cl)C(Cl)Cl)c(F)c1F [Compound 454] | > 100 µg | – | 0.03% | > 0.1% | > 0.05%
COc1ccc(Cl)cc1N=C(OCc1cccc(Oc2ccccc2)c1)C(C)C [Compound 264] | > 100 µg | – | 0.03% | > 0.1% | > 0.05%
CC(C)CC(=Nc1ccc(C(C)C)cc1)OCc1cccc(Oc2ccc(F)cc2)c1 [Compound 329] | 7 µg | – | 0.033% | > 0.1% | > 0.05%
CC(C)C(=Nc1ccc(F)c(F)c1)OCc1cccc(Oc2ccc(C#N)cc2)c1 [Compound 212] | 20 µg | – | 0.0005% | 0.045% | 0.05%
CC(C)C(=Nc1ccc(Cl)c(Cl)c1)OCc1cccc(Oc2ccc(F)cc2F)c1 [Compound 213] | > 100 µg | – | 0.00075% | > 0.1% | 0.01%
Cc1cc(Br)ccc1N=C(OCc1cccc(Oc2ccccc2)c1)C(C)C [Compound 133] | 66 µg | – | 0.005% | 0.1% | 0.003%
CC(C)C(=Nc1ccc(Cl)cc1)OCc1cccc(Oc2ccc(Br)cc2)c1 [Compound 237] | 50 µg | – | 0.0006% | 0.075% | 0.01%
CC(C)C(=Nc1ccc2c(c1)OC(C)(C)O2)OCc1cccc(Oc2ccc(Cl)cc2)n1 [Compound 468] | 50 µg | – | > 0.1% | > 0.1% | 0.05%
CC(C)(C)C(=Nc1cccc([N+](=O)[O-])c1)OCc1cccc(Oc2ccccc2)c1 [Compound 175] | > 100 µg | – | 0.018% | > 0.1% | > 0.05%
CC(C)C(=Nc1ccc2c(c1)CCO2)OCc1cccc(Oc2ccccc2)c1 [Compound 243] | 9 µg | – | 0.005% | > 0.1% | 0.01%
